Assay results: article PMC11940309, “Endocrine-Disrupting Activities of Flavones on Steroid Receptors: Structural Requirements and Synthesis of Novel Flavone with Improved Estrogenic Activity” (Biomedicines, 2025)
Read-outs that look alike come from different tables or passages of the source.

Target: T1, human AR (Homo sapiens, UniProt P10275)
T1 construct: expressed in transfected cells; host or cells: HeLa13 (HeLa 13)
T1 sequence (P10275 1-920): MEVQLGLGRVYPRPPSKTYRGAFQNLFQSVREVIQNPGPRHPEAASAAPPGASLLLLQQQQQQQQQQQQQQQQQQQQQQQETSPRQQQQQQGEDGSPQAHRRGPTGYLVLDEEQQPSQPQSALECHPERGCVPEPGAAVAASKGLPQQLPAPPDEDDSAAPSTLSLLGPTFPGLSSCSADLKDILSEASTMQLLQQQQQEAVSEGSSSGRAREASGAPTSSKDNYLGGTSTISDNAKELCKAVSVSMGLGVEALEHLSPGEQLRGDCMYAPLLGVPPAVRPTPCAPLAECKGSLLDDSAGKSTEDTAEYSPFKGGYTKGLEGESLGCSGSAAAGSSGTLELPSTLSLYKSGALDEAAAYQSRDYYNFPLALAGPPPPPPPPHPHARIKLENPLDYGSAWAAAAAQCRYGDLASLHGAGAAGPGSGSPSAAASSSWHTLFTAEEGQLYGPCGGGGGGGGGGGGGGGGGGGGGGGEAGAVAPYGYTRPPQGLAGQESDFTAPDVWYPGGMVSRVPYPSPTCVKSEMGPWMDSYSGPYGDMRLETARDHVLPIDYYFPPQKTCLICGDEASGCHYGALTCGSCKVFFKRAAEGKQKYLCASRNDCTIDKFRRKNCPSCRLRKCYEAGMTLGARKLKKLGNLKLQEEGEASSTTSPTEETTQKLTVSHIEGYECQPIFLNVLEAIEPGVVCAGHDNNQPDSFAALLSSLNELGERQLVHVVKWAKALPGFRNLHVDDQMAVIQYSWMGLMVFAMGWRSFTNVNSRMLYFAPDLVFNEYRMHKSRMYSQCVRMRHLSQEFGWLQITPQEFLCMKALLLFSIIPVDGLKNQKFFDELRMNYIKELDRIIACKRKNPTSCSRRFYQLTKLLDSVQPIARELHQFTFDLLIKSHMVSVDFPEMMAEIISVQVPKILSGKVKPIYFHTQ
Experiment: AR-mediated induction of PSA-luciferase reporter by R1881 in HeLa13 cells
Assay type: cell-based
Conditions: for inhibition at 1 µM / inhibition at 4 µM: read-out: % Inhibition of AR-Mediated Gene Induction
Source text: The engineered T47D breast cancer cell lines employed for the assessment of flavonoid activity on glucocorticoid receptor (GR) and progesterone receptor (PR) signaling permitted the facile quantitation transcription of both an endogenous gene and a stably integrated reporter gene. […] The T47D K5pLuc cell line responds to progestins via induction of a stably integrated cytokeratin 5-luciferase reporter gene. […] For assessment of the effect of the test compounds on androgen receptor (AR) signaling, we used the HeLa13 cell line engineered to stably express human AR and a PSA-luciferase reporter gene containing a 4× multimerized PSA upstream enhancer ARE1 linked to the E4 TATA box and luciferase gene.
Experiments testing the effect of flavonoid on androgen receptor-mediated transcription employed HeLa 13 cells maintained in MEM medium supplemented with 10% FBS, 0.5 mg/mL G418, 0.05 mg/mL Hygromycin B, […], and streptomycin (100 μg/mL). For reporter gene experiments, cells were replated at a 1:5 dilution in MEM medium with 5% charcoal-stripped FBS and the antibiotics mentioned above. The medium was changed the next day. After 48 h, the cells were washed with PBSE, detached with phenol red-free trypsin, pelleted, resuspended and plated in 96 well plates as above. Hormone and flavonoid treatments were performed as described above with the HeLa 13 medium and charcoal-stripped FBS. When treated with hormone, the synthetic androgen, R1881, was used at 1.0 nM. Hormone treatment was for 20 h at which time cells were harvested for assay of luciferase.
For all cell lines, cell harvesting and the luminescence assay for alkaline phosphatase and/or luciferase were performed as previously described in detail. Each condition was performed in quadruplicate. […] Percent inhibition is 100 minus the percent induction.

| inhibition at 1 µM (1 µM, R1881 1.0 nM) | inhibition at 4 µM (4 µM, R1881 1.0 nM) | SMILES | also measured |
| --- | --- | --- | --- |
| – | – | O=c1cc(-c2ccc(O)cc2)oc2cc(O)ccc12 [7,4′-dihydroxyflavone] | inhibition at 1 µM: -18%; inhibition at 4 µM: -20% |
| 40% | 75% | O=c1cc(-c2ccc(O)c(O)c2)oc2ccccc12 [3′,4′-dihydroxyflavone] | – |
| 29% | 65% | O=c1cc(-c2ccc(O)cc2)oc2ccccc12 [4′-hydroxyflavone] | – |
| – | – | COc1ccc([C@@H]2CC(=O)c3c(O)cc(O)cc3O2)cc1O [5,7,3′-triOH, 4′methoxyflavanone] | inhibition at 1 µM: -28%; inhibition at 4 µM: -30% |
| 43% | 54% | O=c1cc(-c2ccc(O)cc2)oc2ccc(O)cc12 [6,4′-dihydroxyflavone] | – |
| – | – | O=c1cc(-c2ccc(O)c(O)c2)oc2cccc(O)c12 [5,3′,4′-trihydroxyflavone] | inhibition at 1 µM: 29%; inhibition at 4 µM: 91% |
| -13% | 46% | O=c1cc(-c2ccccc2)oc2cc(O)cc(O)c12 [5,7-dihydroxyflavone] | – |
| – | – | O=C1CC(c2ccc(O)c(O)c2)Oc2cc(O)cc(O)c21 (centres unmarked) [5,7,3′,4′-tetrahydroxyflavanone] | inhibition at 1 µM: 13%; inhibition at 4 µM: 24% |
| 77% | 97% | O=c1cc(-c2ccc(O)cc2)oc2cccc(O)c12 [5,4′-dihydroxyflavone] | IC50 (R1881, read-out: IC50, AR antagonism): ~500 nM |
| -20% | 67% | O=c1cc(-c2ccc(O)c(O)c2)oc2cc(O)cc(O)c12 [5,7,3′,4′-tetrahydroxyflavone] | – |
| 55% | 22% | O=c1c(-c2ccc(O)cc2)coc2cc(O)cc(O)c12 [5,7,4′-trihydroxyisoflavone] | – |
| -12% | 55% | O=c1cc(-c2ccccc2)oc2ccccc12 [flavone] | – |
| – | – | O=c1cc(-c2cc(O)c(O)c(O)c2)oc2cc(O)cc(O)c12 [5,7,3′4′,5′-pentahydroxyflavone] | % Inhibition of AR-Mediated Gene Induction (1 µM, R1881 1.0 nM): −8%; % Inhibition of AR-Mediated Gene Induction (4 µM, R1881 1.0 nM): 24% |
| -17% | 9% | O=C1CC(c2ccc(O)cc2)Oc2cc(O)cc(O)c21 (centres unmarked) [5,7,4′-trihydroxyflavanone] | – |
| -6% | 11% | O=c1cc(-c2ccc(O)c(O)c2)oc2cc(O)ccc12 [7,3′,4′-trihydroxyflavone] | – |
| – | 24% | O=c1c(-c2ccc(O)cc2)coc2cc(O)ccc12 [7,4′-dihydroxyisoflavone] | – |
